{"source": "patent US20190070296A1", "about": "“SONODYNAMIC THERAPY” (LI-COR, INC., priority 2017, published 2019)", "key": {"A431 cells": {"tested_on": "A431 cells", "experiment": "VB-48 Assay: vitality, viability and necrosis after probe labeling and irradiation", "assay_type": "cell-based", "conditions": "irradiated 32 J/cm^2; RGD-700DX 0.5 μM, EGF-700DX 0.5 μM, 700DX NHSe 5 μM, Pan-700DX ~0.1 μM; 24 hours post treatment", "description": "Briefly, A431 cells were labeled with respective probes for specific treatments (listed below); cells were rinsed and evaluated for labeling. The test include the following treatments: […], treatments 3-4 of EGF-IRDye® 700DX at 0.5 μM and radiation, treatments 5-6 of IRDye® 700DX NHSe at 5 μM and radiation, treatments 7-8 of panitumumab-IRDye® 700DX at about 0.1 μM and radiation, treatment 9 of a negative control with no probe and no irradiation, and treatment 10 of RGD-IRDye® 700DX and no irradiation. The probes were incubated for about 10 minutes and with a longer period of about 20 minutes for the RGD probe."}, "[1]": {"experiment": "Sonoactivation of IRDye 700DX solution; reactive oxygen species detected with dihydrorhodamine 123 (DHRd123) indicator", "description": "The results illustrate that ultrasonic waves enhance the emission of a reactive oxygen species indicator, which indicates the occurrence of one of the sonodynamic effects generated by applying ultrasonic energy to IRDye® 700DX under the experimental conditions. In this example, the concentration of IRDye® 700DX was 1 μm.\nThe experiment included dihydroxy rhodamine 123 to detect the presence of reactive oxygen species. Reactive oxygen species were detected.\nThe results illustrate a continuous treatment of a 1 MHz ultrasonic wave. […] The experiment included dihydroxy rhodamine 123 to detect the presence of reactive oxygen species. Reactive oxygen species were detected. […]"}, "[2]": {"experiment": "Sonoactivation of IRDye 700DX solution; singlet oxygen detected with Sensor Green indicator", "conditions": "ultrasonic wave at 1MHz and 2.0W/cm^2", "description": "As shown therein, there is generation of singlet oxygen during the sonodynamic process. By applying the ultrasonic wave at 1MHz and 2.0W/cm^2 to the agent IRDye® 700DX, the enhancement of the emission of the singlet oxygen indicator, Sensor Green (SG), indicates the occurrence of a sonodynamic effects. Singlet oxygen was detected.\nBoth sonosensitization, also known as sonodynamic activation or sonoactivation, and photosensitization, also known as photodynamic activation or photoactivation, trigger reactive oxidation species (ROS) or single oxygen (^1O2) that results in cell death via either apoptosis or necrosis, and thus sonodynamic therapy (SDT) or photodynamic therapy (PDT), respectively."}, "[3]": {"experiment": "Emission profile of IRDye 700DX (700 nm range) after ultrasound: stability of the dye", "assay_type": "physicochemical", "conditions": "1MHz ultrasonic wave at 3 W/cm^2, 15 minutes"}, "[4]": {"conditions": "continuous treatment of a 1 MHz ultrasonic wave"}}, "data": [{"compound": "EGF-700DX", "values": [{"measurement": "Cells/mL", "setting": "A431 cells", "value": "3.4 × 10^5 Cells/mL"}, {"measurement": "Low % Vitality", "setting": "A431 cells", "value": 19, "unit": "%"}]}, {"compound": "COC(=O)c1ccccc1C1c2ccc(N)cc2Oc2cc(N)ccc21", "note": "[Sensitizer DHRd123 Solution, dihydrorhodamine 123, reference compound]", "values": [{"measurement": "Primary Sonodynamic Effect Detected", "setting": "[1]; DHRd123 solution 2.5 uM alone, no IRDye 700DX, no sonodynamic activation", "value": "None"}, {"measurement": "Primary Sonodynamic Effect Detected", "setting": "[1]; DHRd123 solution alone, no IRDye 700DX, 3.3 MHz, 3 W/cm^2, 15 min, duty cycle 20%, 540 J/cm^2", "value": "ROS"}]}, {"compound": "C[Si](C)(CCC[N+](CCCS(=O)(=O)[O-])(CCCS(=O)(=O)[O-])CCCS(=O)(=O)[O-])O[Si]1(O[Si](C)(C)CCC[N+](CCCS(=O)(=O)[O-])(CCCS(=O)(=O)[O-])CCCS(=O)(=O)[O-])n2c3c4ccccc4c2N=C2N=C(N=c4c5ccccc5c(n41)=NC1=NC(=N3)c3ccccc31)c1cccc(OCCCOC(=O)NCCCCCC(=O)ON3C(=O)CCC3=O)c12.[Na+].[Na+].[Na+].[Na+]", "note": "(centres unmarked) [IRDye® 700DX]", "values": [{"measurement": "generation of singlet oxygen (Sensor Green), FIG. 5", "setting": "[2]", "value": "detected"}, {"measurement": "Primary Sonodynamic Effect Detected", "setting": "[1]; 700DX 1 uM with DHRd123, no sonodynamic activation (placebo), 7 min", "value": "None"}, {"measurement": "Primary Sonodynamic Effect Detected", "setting": "[1]; 700DX 1 uM with DHRd123, no sonodynamic activation (placebo), 15 min", "value": "Minimal"}, {"measurement": "Primary Sonodynamic Effect Detected", "setting": "[1]; 700DX with DHRd123, 1 MHz, 2.2 W/cm^2, 7 + 7 min, duty cycle 20%, 370 J/cm^2", "value": "ROS+"}, {"measurement": "Primary Sonodynamic Effect Detected", "setting": "[1]; 700DX with DHRd123, 1 MHz, 2.2 W/cm^2, 7 min, duty cycle 20%, 185 J/cm^2", "value": "ROS"}, {"measurement": "Primary Sonodynamic Effect Detected", "setting": "[1]; 700DX with DHRd123, 1 MHz, 2.2 W/cm^2, 15 min, duty cycle 20%, 396 J/cm^2", "value": "ROS++"}, {"measurement": "Primary Sonodynamic Effect Detected", "setting": "[1]; 700DX with DHRd123, 3.3 MHz, 3 W/cm^2, 7 min, duty cycle 20%, 252 J/cm^2", "value": "ROS"}, {"measurement": "Primary Sonodynamic Effect Detected", "setting": "[1]; 700DX with DHRd123, 3.3 MHz, 3 W/cm^2, 15 min, duty cycle 20%, 540 J/cm^2", "value": "ROS++"}, {"measurement": "emission of the reactive oxygen species indicator (FIG. 3)", "setting": "[1]; IRDye 700DX 1 μm, 1MHz ultrasonic wave at 3 W/cm^2, 15 minutes", "value": "large increase in the emission of the indicator"}, {"measurement": "emission peak of the reactive oxygen species indicator (FIG. 3)", "setting": "[1]; IRDye 700DX 1 μm, duration 7 minutes", "value": "not as enhanced as with 15 minutes duration"}, {"measurement": "presence of reactive oxygen species (dihydroxy rhodamine 123), FIG. 3", "setting": "[1]; IRDye 700DX 1 μm, ultrasonic wave 7 or 15 minutes", "value": "detected"}, {"measurement": "effect of increasing the pulse duration on reactive oxygen species (FIG. 4)", "setting": "[1]; [4]", "value": "increases the generation of reactive oxygen species"}, {"measurement": "presence of reactive oxygen species (dihydroxy rhodamine 123), FIG. 4", "setting": "[1]; [4]", "value": "detected"}, {"measurement": "chemical structure of the dye after sonodynamic activation (emission profile at 700 nm range)", "setting": "[3]", "value": "did not decompose"}]}, {"compound": "Pan-700DX: panitumumab antibody labeled with IRDye 700DX", "values": [{"measurement": "% Healthy", "setting": "A431 cells", "value": 15.0, "unit": "%"}, {"measurement": "% Necrotic", "setting": "A431 cells", "value": 70, "unit": "%"}, {"measurement": "Cells/mL", "setting": "A431 cells", "value": "1.2 × 10^5 Cells/mL"}, {"measurement": "Est % Viability", "setting": "A431 cells", "value": "30-40%"}, {"measurement": "Low % Vitality", "setting": "A431 cells", "value": 15, "unit": "%"}]}]}
